This note sets out measurements from PubChem BioAssay AID330 (DTP/NCI, 2004).

“And” between values parts separate entries of the source, which are not always exact repeats. Equal values may be shown once. Inconclusive results and toxic doses are left out.

The test deals with P388 leukemia ip, CD2F1 mice, survival T/C. Briefly: NCI In Vivo Anticancer Drug Screen. Data for tumor model P388 Leukemia (intraperitoneal) in CD2F1 (CDF1) mice. The following applies: endpoint: median survival time, higher = longer survival. Put shortly:
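Mice carrying the transplanted tumor received test compound or vehicle. Survival was recorded in each group, and the value is the treated-group measurement divided by that of the vehicle-treated control group.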

The mark [1] stands for this setting: dose: 60.0 mg/kg/injection, schedule: Q01DX005 (ip), vehicle: saline with Tween-80.
The mark [2] stands for this setting: dose: 120.0 mg/kg/injection, schedule: Q01DX005 (ip), vehicle: saline with Tween-80.
The mark [3] stands for this setting: dose: 240.0 mg/kg/injection, schedule: Q01DX005 (ip), vehicle: saline with Tween-80.
Where [4] appears, read: dose: 50.0 mg/kg/injection, schedule: Q01DX005 (ip), vehicle: Klucel (hydroxypropylcellulose) (HPC).
The mark [5] stands for this setting: dose: 100.0 mg/kg/injection, schedule: Q01DX005 (ip), vehicle: Klucel (hydroxypropylcellulose) (HPC).
Where [6] appears, read: dose: 200.0 mg/kg/injection, schedule: Q01DX005 (ip), vehicle: Klucel (hydroxypropylcellulose) (HPC).
Setting [7] is: dose: 100.0 mg/kg/injection, schedule: Q04DX003 (ip), vehicle: saline.
Where [8] appears, read: dose: 200.0 mg/kg/injection, schedule: Q04DX003 (ip), vehicle: saline.
[9] abbreviates: dose: 50.0 mg/kg/injection, schedule: Q01DX009 (ip), vehicle: Klucel (hydroxypropylcellulose) (HPC).
The mark [10] stands for this setting: dose: 100.0 mg/kg/injection, schedule: Q01DX009 (ip), vehicle: Klucel (hydroxypropylcellulose) (HPC).
Where [11] appears, read: dose: 200.0 mg/kg/injection, schedule: Q01DX009 (ip), vehicle: Klucel (hydroxypropylcellulose) (HPC).
[12] abbreviates: dose: 100.0 mg/kg/injection, schedule: Q01DX009 (ip), vehicle: saline.
Setting [13] is: dose: 50.0 mg/kg/injection, schedule: Q01DX009 (ip), vehicle: suspension in saline.
The mark [14] stands for this setting: dose: 100.0 mg/kg/injection, schedule: Q01DX009 (ip), vehicle: suspension in saline.
The mark [15] stands for this setting: dose: 200.0 mg/kg/injection, schedule: Q01DX009 (ip), vehicle: suspension in saline.
Setting [16] is: dose: 25.0 mg/kg/injection, schedule: Q01DX009 (ip), vehicle: saline with Tween-80.
The mark [17] stands for this setting: dose: 50.0 mg/kg/injection, schedule: Q01DX009 (ip), vehicle: saline with Tween-80.
Setting [18] is: dose: 100.0 mg/kg/injection, schedule: Q01DX009 (ip), vehicle: saline with Tween-80.
The mark [19] stands for this setting: dose: 12.5 mg/kg/injection, schedule: Q01DX005 (ip), vehicle: saline with Tween-80.
The mark [20] stands for this setting: dose: 25.0 mg/kg/injection, schedule: Q01DX005 (ip), vehicle: saline with Tween-80.
[21] abbreviates: dose: 50.0 mg/kg/injection, schedule: Q01DX005 (ip), vehicle: saline with Tween-80.
Setting [22] is: dose: 200.0 mg/kg/injection, schedule: Q01DX005 (ip), vehicle: saline with Tween-80.
The mark [23] stands for this setting: dose: 100.0 mg/kg/injection, schedule: Q01DX005 (ip), vehicle: saline with Tween-80.

Regarding `Cc1cccc(C(C)C)c1NC(=O)C(=O)C(C#N)c1ccc(CC#N)cc1` (centres undefined), the T/C was 99 % of control under setting [1] and 98 % of control under setting [2].

With `O=C(O)c1cccc2cccc(-c3c4ccc(=O)cc-4oc4cc(O)ccc34)c12`, the T/C is 101 % of control under setting [1], 100 % of control under setting [2] and 98 % of control under setting [3].

`CN=C(NC#N)NCCSCc1ccc2ccccc2n1`: the T/C by setting is: (dose: 50.0 mg/kg/injection, schedule: Q01DX005 (ip), vehicle: distilled water + Tween-80 + alcohol) 115 % of control; (dose: 100.0 mg/kg/injection, schedule: Q01DX005 (ip), vehicle: distilled water + Tween-80 + alcohol) 94 % of control.

`CCCCNc1ccc2nnc(C)n2n1`: the T/C is, setting by setting: under setting [4], 103 % of control; (dose: 100.0 mg/kg/injection, schedule: Q01DX005 (ip), vehicle: DMSO) 98 % of control; under setting [5], 108 % of control; (dose: 200.0 mg/kg/injection, schedule: Q01DX005 (ip), vehicle: DMSO) 104 % of control; under setting [6], 100 % of control.

In the case of `NC1C([O-])OC(CO)C(O)C1O.O=C1OC(C(O)CO)C([O-])=C1[OH2+].[Cu+2]` (centres undefined), the T/C (dose: 6.25 mg/kg/injection, schedule: Q01DX005 (ip), vehicle: saline) was 93 % of control and the T/C (dose: 12.5 mg/kg/injection, schedule: Q01DX005 (ip), vehicle: saline) was 99 % of control.

As to `CN1CCC/C1=C/C(=O)c1ccccc1`, the T/C was 100 % of control under setting [7] and 111 % of control under setting [8].

With `FC(F)(F)C(OCC1CO1)(c1ccccc1)C(F)(F)F` (centres undefined), the T/C by setting is: under setting [9], 89 % of control; under setting [10], 97 % of control; under setting [11], 97 % of control.

For the compound `O=C(O)CC1Sc2nc3c(n2C1(O)c1ccccc1)CCCC3` (centres undefined), the T/C is 109 % of control under setting [9], 100 % of control under setting [10] and 98 % of control under setting [11].

`Nc1cc([N+](=O)[O-])ccc1O`: the T/C under setting [12] was 102 % of control and 105 % of control; the T/C (dose: 200.0 mg/kg/injection, schedule: Q01DX009 (ip), vehicle: saline) was 101 % of control; the T/C (dose: 600.0 mg/kg/injection, schedule: Q01DX009 (ip), vehicle: saline) is 91 % of control.

As to `S=c1ncc2[nH]cnc2[nH]1`, the T/C by setting is: under setting [4], 99 % of control; under setting [5], 105 % of control; under setting [6], 105 % of control.

Regarding `CCOC(=O)C1C2CCCCC21OC` (centres undefined), the T/C is 106 % of control under setting [1], 107 % of control under setting [2] and 110 % of control under setting [3].

As for `CCOc1cc(=O)cc2n(-c3cc(OCC)c(OC(C)=O)c(OCC)c3)c3ccccc3nc1-2`, the T/C under setting [13] was 99 % of control, the T/C under setting [14] was 100 % of control and the T/C under setting [15] is 99 % of control.

As for `O=C1NS(=O)(=O)Oc2c1ccc1ccccc21`, the T/C runs as follows: (dose: 12.5 mg/kg/injection, schedule: Q01DX009 (ip), vehicle: saline with Tween-80) 108 % of control; under setting [16], 99 % of control; under setting [17], 96 % of control; under setting [18], 96 % of control; (dose: 200.0 mg/kg/injection, schedule: Q01DX009 (ip), vehicle: saline with Tween-80) 110 % of control.

`CCN(CCNc1ccc(C)c2sc3cc(Cl)ccc3c(=O)c12)CC(C)(C)O`: the T/C runs as follows: under setting [19], 95 % of control; under setting [20], 92 % of control; under setting [21], 88 % of control and 97 % of control; under setting [22], 95 % of control.

For `COc1cc2c(cc1OC)C(=O)CCC2`, the T/C by setting is: (dose: 25.0 mg/kg/injection, schedule: Q01DX009 (ip), vehicle: Klucel (hydroxypropylcellulose) (HPC)) 105 % of control; under setting [9], 100 % of control; under setting [10], 106 % of control; under setting [11], 99 % of control.

Regarding `Nc1ncc(S(=O)(=O)c2ccc([N+](=O)[O-])cc2)c(N)n1`, the T/C was 96 % of control (dose: 75.0 mg/kg/injection, schedule: Q01DX009 (ip), vehicle: suspension in saline); 98 % of control (dose: 150.0 mg/kg/injection, schedule: Q01DX009 (ip), vehicle: suspension in saline); 92 % of control (dose: 300.0 mg/kg/injection, schedule: Q01DX009 (ip), vehicle: suspension in saline).

For the compound `CN(C)C1(C)CCC2C3CCC4=CC(=O)CCC4(C)C3CCC21C` (centres undefined), the T/C is 97 % of control under setting [4], 97 % of control under setting [5] and 100 % of control under setting [6].

As to `C=CCN(CC=C)C1C(O)CCOC1OC` (centres undefined), the T/C was 109 % of control and 101 % of control (dose: 60.0 mg/kg/injection, schedule: Q01DX005 (ip), vehicle: saline); 107 % of control and 103 % of control (dose: 120.0 mg/kg/injection, schedule: Q01DX005 (ip), vehicle: saline); 109 % of control and 102 % of control (dose: 240.0 mg/kg/injection, schedule: Q01DX005 (ip), vehicle: saline).

In the case of `CCCOc1cc2c(cc1C/C=C/c1ccccc1)OCO2`, the T/C under setting [21] was 94 % of control, the T/C under setting [23] is 100 % of control and the T/C under setting [22] was 102 % of control.

Turning to `CC(C)C(O)C1CCOS1(=O)=O` (centres undefined), the T/C is, setting by setting: under setting [7], 95 % of control; under setting [8], 101 % of control.

Regarding `CC(C)c1ccc(O)c(O)c1`, the T/C was 113 % of control under setting [16], 113 % of control under setting [17] and 111 % of control under setting [18].

For the compound `COP(=O)(CS(=O)(=O)Oc1ccc(S(C)(=O)=O)cc1)OC`, the T/C reads like this: (dose: 3.12 mg/kg/injection, schedule: Q01DX005 (ip), vehicle: Klucel (hydroxypropylcellulose) (HPC)) 97 % of control; (dose: 6.25 mg/kg/injection, schedule: Q01DX005 (ip), vehicle: Klucel (hydroxypropylcellulose) (HPC)) 100 % of control; (dose: 12.5 mg/kg/injection, schedule: Q01DX005 (ip), vehicle: Klucel (hydroxypropylcellulose) (HPC)) 99 % of control; (dose: 25.0 mg/kg/injection, schedule: Q01DX005 (ip), vehicle: Klucel (hydroxypropylcellulose) (HPC)) 97 % of control.

Consider `CC(Nc1ncnc2c1CCc1ccccc1-2)C(=O)O` (centres undefined), for which the T/C by setting is: (dose: 100.0 mg/kg/injection, schedule: Q04DX002 (ip), vehicle: saline with Tween-80) 100 % of control; (dose: 200.0 mg/kg/injection, schedule: Q04DX002 (ip), vehicle: saline with Tween-80) 94 % of control.

Regarding `c1ccc(CNc2ncccn2)nc1`, the T/C runs as follows: under setting [21], 100 % of control; under setting [23], 96 % of control; under setting [22], 100 % of control.

Consider `CC(=O)OCC1=C(c2ccccc2)S(=O)(=O)c2ccccc2C1=O`, for which the T/C under setting [19] is 108 % of control and the T/C under setting [20] is 106 % of control.

With `COc1ccc(CSC(=S)Nc2ccc(Cl)c([N+](=O)[O-])c2)cc1`, the T/C under setting [13] is 108 % of control, the T/C under setting [14] is 99 % of control and the T/C under setting [15] is 99 % of control.

With `O=C(CNC(=O)OCc1ccccc1)OC(=O)CNC(=O)OCc1ccccc1`, the T/C is 96 % of control (dose: 100.0 mg/kg/injection, schedule: Q04DX002 (ip), vehicle: Klucel (hydroxypropylcellulose) (HPC)); 93 % of control (dose: 200.0 mg/kg/injection, schedule: Q04DX002 (ip), vehicle: Klucel (hydroxypropylcellulose) (HPC)); 93 % of control (dose: 400.0 mg/kg/injection, schedule: Q04DX002 (ip), vehicle: Klucel (hydroxypropylcellulose) (HPC)).

Regarding `NCCc1cc(O)c(O)c(O)c1`, the T/C by setting is: (dose: 50.0 mg/kg/injection, schedule: Q01DX009 (ip), vehicle: saline) 108 % of control and 109 % of control; under setting [12], 117 % of control; (dose: 400.0 mg/kg/injection, schedule: Q01DX009 (ip), vehicle: saline) 153 % of control and 168 % of control.
